Measured values: patent US20220152051A1, “APPLICATION OF GLYCOCHOLIC ACID IN PREPARATION OF ANTITUMOR DRUGS” (DALIAN UNIVERSITY, priority 2019, published 2022)

Columns and labels:
[1] = test system: 4T1 (mouse breast cancer cells); test: In-vitro anti-tumor experiment (CCK-8), 4T1 cells; type: cell-based; details: for concentration at the highest point of the inhibition rate: 4T1 cells, highest inhibition rate at 12 h
Description: 3.1 Cells at a logarithmic growth phase are collected, the concentration of the cells is respectively regulated into 5×10^4 cells/ml by the 1640 culture medium and the DMEM culture medium, and 100 μl of cell suspension is added into a 96-well plate. 3.2 After culture is carried out for 24 h at the temperature of 37° C. at 5% CO2, the concentration gradient of glycocholic acid respectively of 0.1 nmol/L, 0.2 nmol/L, 0.4 nmol/L, 0.8 nmol/L, 1.6 nmol/L, 3.2 nmol/L and 6.4 nmol/L is added into 4T1 mouse breast cancer cells, the concentration gradient of glycocholic acid respectively of 0.02 μmol/L, 0.04 μmol/L, 0.08 μmol/L, 0.16 μmol/L, 0.32 μmol/L, 0.64 μmol/L and 1.28 μmol/L is added into MCF-7 cells, the concentration gradient of glycocholic acid respectively of 0.02 μmol/L, 0.04 μmol/L, 0.08 μmol/L, 0.16 μmol/L, 0.33 μmol/L, 0.66 μmol/L and 1.32 μmol/L is added into MDA-MB-468 cells, the concentration gradient of glycocholic acid respectively of 0.02 μmol/L, 0.04 μmol/L, 0.08 μmol/L, 0.16 μmol/L, 0.32 μmol/L, 0.64 μmol/L and 1.28 μmol/L is added into NIH:OVCAR-3 cells, the concentration gradient of glycocholic acid respectively of 0.02 μmol/L, 0.04 μmol/L, 0.08 μmol/L, 0.16 μmol/L, 0.32 μmol/L, 0.64 μmol/L and 1.28 μmol/L is added into RL-95-2 cells, set up five duplicated wells and meanwhile, set up a blank group and a control group. 3.3 Add CCK-8 reagent after 12 h, 24 h, 36 h, 48 h and 60 h, and incubate for 3 h, and after incubation is completed, the absorption value of each well is measured at OD450 nm of the microplate reader. 3.4 An inhibition rate of each concentration of glycocholic acid for tumor cells is obtained by utilizing a formula of 3.1 Cells at a logarithmic growth phase are collected, the concentration of the cells is regulated into 5×10^4 cells/ml by the 1640 culture medium, and 100 μl of cell suspension is added into a 96-well plate. […] 3.3 Add CCK-8 reagent after 12 h, 24 h, 36 h, 48 h and 60 h, incubate for 3 h, and after incubation is completed, the absorption value of each well is measured at OD450 nm of the microplate reader. […]

[2] = test system: RL95-2 (human endometrial cancer cells); test: In-vitro anti-tumor experiment (CCK-8), RL95-2 cells; type: cell-based
Description: (§1) 3.1 Cells at a logarithmic growth phase are collected, the concentration of the cells is respectively regulated into 5×10^4 cells/ml by the 1640 culture medium and the DMEM culture medium, and 100 μl of cell suspension is added into a 96-well plate. […] 3.3 Add CCK-8 reagent after 12 h, 24 h, 36 h, 48 h and 60 h, and incubate for 3 h, and after incubation is completed, the absorption value of each well is measured at OD450 nm of the microplate reader. […]

[3] = test system: NIH:OVCAR-3 (human ovarian cancer cells); test: In-vitro anti-tumor experiment (CCK-8), NIH:OVCAR-3 cells; type: cell-based
Description: as §1

[4] = test system: MDA-MB-468 (human breast cancer cells); test: In-vitro anti-tumor experiment (CCK-8), MDA-MB-468 cells; type: cell-based
Description: as §1

FXR protein expression = test: Western blot of specific target protein expression in 4T1 cells; type: cell-based, mouse; details: 0.8 nmol/L, 12 h
Description: 2. After proteins of 4T1 cells intervened by glycocholic acid are extracted, by degeneration treatment, changes in the expression of the related proteins are measured according to the Western blot flow.

[5] = test system: 4T1 mouse breast cancer cells; test: Tumor inhibition rate by animal model (4T1 tumor-bearing BABL/c mice); type: in vivo; details: 15 mg/kg intragastric twice/day for two weeks, 4T1 tumor in BABL/c mice
Description: 1. Materials: 30 female 10-week-old BABL/c mice purchased from the SPF Experimental Animal Center of the Dalian Medical University; and 4T1 tumor cells purchased from the Shanghai Cell Bank of the Chinese Academy of Sciences. 2.1 Modeling: 4T1 mouse breast cancer cells at a logarithmic growth phase are collected, and the concentration of the cells is adjusted to 2×10^6 cells/ml with PBS; and 0.1 ml of cell suspension is injected under the right armpits of the mice by a sterile syringe. 2.2 Administration: intragastric administration of 15 mg/kg of glycocholic acid is started on the second day after modeling (twice/day), 0.2 mL each time, the equal volume of distilled water is administrated to the control group, and administration is continuously carried out for two weeks. The mice are fasted on the night of the last administration, the mice are sacrificed on the fifteenth day by a cervical dislocation method, tumor tissues under the armpits of the mice are aseptically stripped and weighed, and the tumor inhibition rate is calculated according to a formula of […]

[6] = test system: MCF-7 (human breast cancer cells); test: In-vitro anti-tumor experiment (CCK-8), MCF-7 cells; type: cell-based
Description: as §1

FXR gene expression = test: Real-time PCR of specific target RNA expression in 4T1 cells; type: cell-based, mouse; details: 0.8 nmol/L, 12 h, vs negative control
Description: 2. Method: RNA of the 4T1 cells intervened by glycocholic acid is extracted, and after reverse transcription, the Real-time RCP is carried out to measure the changes in the RNA expression of the specific target of glycocholic acid.

[7] = highest inhibition rate at 36 h

IC50 ([2]; Homo sapiens, CCK-8, 36 h) | IC50 ([1]; 4T1 mouse breast cancer cells, CCK-8, 12 h) | IC50 ([3]; Homo sapiens, CCK-8, 48 h) | IC50 ([4]; Homo sapiens, CCK-8, 36 h) | IC50 ([6]; Homo sapiens, MCF7, CCK-8, 36 h) | Structure (SMILES) | concentration at the highest point of the inhibition rate [1] | concentration at the highest point of the inhibition rate [2, 7] | concentration at the highest point of the inhibition rate ([3]; highest inhibition rate at 48 h) | concentration at the highest point of the inhibition rate [4, 7] | expression of the specific target protein (FXR) in tumor cells (FXR protein expression) | average mouse tumor mass ([5]; day 15) | tumor inhibition rate ([5]; vs control group) | concentration at the highest point of the inhibition rate [6, 7] | expression of related RNA (FXR gene) after intervention (FXR gene expression)
 |  |  |  |  | C[C@H](CCC(=O)NCC(=O)[O-])[C@H]1CC[C@H]2[C@@H]3[C@H](O)C[C@@H]4C[C@H](O)CC[C@]4(C)[C@H]3C[C@H](O)[C@]12C.[Na+] [sodium glycocholate] | 0.7 nmol/L |  |  |  |  |  |  |  | 
320 to 640 nM | 0.01 to 0.1 nM | 160 to 320 nM | 330 to 660 nM | 640 to 1000 nM | C[C@H](CCC(=O)NCC(=O)O)[C@H]1CC[C@H]2[C@@H]3[C@H](O)C[C@@H]4C[C@H](O)CC[C@]4(C)[C@H]3C[C@H](O)[C@]12C [glycocholic acid] | 0.8 nmol/L | 1.28 µmol/L | 1.28 µmol/L | 1.32 µmol/L | increased | 0.247 ± 0.08 g | 42.83% | 1.28 µmol/L | 1.5 times
